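96-well plates; 48 h exposure; 5 concentrations. Endpoints by linear interpolation between flanking doses. Not reached: highest tested concentration assigned. Abbreviation: GI50, concentration required for 50% inhibition of growth. The concentration for full growth arrest is given as TGI.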
How the values were obtained:
Test in all cases: NCI-60 cell line screen, 48 h
[1] = system: 786-0 renal
[2] = system: A498 renal
[3] = system: A549 NSCLC
[4] = system: ACHN renal
[5] = system: BT-549 breast
[6] = system: CAKI-1 renal
[7] = system: CCRF-CEM leukemia
[8] = system: COLO 205 colon
[9] = system: DU-145 prostate
[10] = system: EKVX NSCLC
[11] = system: HCC-2998 colon
[12] = system: HCT-116 colon
[13] = system: HCT-15 colon
[14] = system: HL-60(TB) leukemia
[15] = system: HOP-62 NSCLC
[16] = system: HOP-92 NSCLC
[17] = system: HS 578T breast
[18] = system: HT29 colon
[19] = system: IGROV1 ovarian
[20] = system: K-562 leukemia
[21] = system: KM12 colon
[22] = system: LOX IMVI melanoma
[23] = system: M14 melanoma
[24] = system: MALME-3M melanoma
[25] = system: MCF7 breast
[26] = system: MDA-MB-231 breast
[27] = system: MDA-MB-435
[28] = system: MOLT-4 leukemia
[29] = system: NCI-H226 lung
[30] = system: NCI-H23 lung
[31] = system: NCI-H460 lung
[32] = system: NCI-H522 lung
[33] = system: NCI/ADR-RES ovarian
[34] = system: OVCAR-3 ovarian
[35] = system: OVCAR-4 ovarian
[36] = system: OVCAR-5 ovarian
[37] = system: OVCAR-8 ovarian
[38] = system: PC-3 prostate
[39] = system: RPMI-8226 leukemia
[40] = system: SF-268 CNS
[41] = system: SF-295 CNS
[42] = system: SF-539 CNS
[43] = system: SK-MEL-2 melanoma
[44] = system: SK-MEL-28 melanoma
[45] = system: SK-MEL-5 melanoma
[46] = system: SK-OV-3 ovarian
[47] = system: SN12C renal
[48] = system: SNB-19 CNS
[49] = system: SNB-75 CNS
[50] = system: SR leukemia
[51] = system: SW-620 colon
[52] = system: T-47D breast
[53] = system: TK-10 renal
[54] = system: U251 CNS
[55] = system: UACC-257 melanoma
[56] = system: UACC-62 melanoma
[57] = system: UO-31 renal

## C[C@H](Nc1ncnc2ccc(-c3cnc(Cl)c(NS(C)(=O)=O)c3)cc12)c1ccccc1
[1]
  GI50: 1140 nM
  TGI: 7.48 µM
[2]
  GI50: 269 nM
  TGI: 2300 nM
[3]
  GI50: 3.17 µM
  TGI: 15.7 µM
[4]
  GI50: 2180 nM
  TGI: > 100 µM
[5]
  GI50: 272 nM
  TGI: 2050 nM
[6]
  GI50: 1110 nM
  TGI: 8.21 µM
[7]
  GI50: 5.46 µM
  TGI: > 100 µM
[8]
  GI50: 2290 nM
  TGI: 7.61 µM
[9]
  GI50: 2730 nM
  TGI: 28.4 µM
[10]
  GI50: 1200 nM
  TGI: 4.36 µM
[11]
  GI50: 924 nM
  TGI: 6.86 µM
[12]
  GI50: 1680 nM
  TGI: 6.12 µM
[13]
  GI50: 766 nM
  TGI: 11.2 µM
[14]
  GI50: 9.47 µM
  TGI: > 100 µM
[15]
  GI50: 1300 nM
  TGI: 21 µM
[16]
  GI50: 280 nM
  TGI: 4.84 µM
[17]
  GI50: 199 nM
  TGI: 862 nM
[18]
  GI50: 2360 nM
  TGI: 19.7 µM
[19]
  GI50: 278 nM
  TGI: 1500 nM
[20]
  GI50: 7.97 µM
  TGI: > 100 µM
[21]
  GI50: 2300 nM
  TGI: 11.8 µM
[22]
  GI50: 344 nM
  TGI: 1890 nM
[23]
  GI50: 1570 nM
  TGI: 12.6 µM
[24]
  GI50: 242 nM
  TGI: 1880 nM
[25]
  GI50: 277 nM
  TGI: 10.6 µM
[26]
  GI50: 1030 nM
  TGI: 2700 nM
[27]
  GI50: 1270 nM
  TGI: 10.7 µM
[28]
  GI50: 4.33 µM
  TGI: > 100 µM
[29]
  GI50: 943 nM
  TGI: 8.41 µM
[30]
  GI50: 1070 nM
  TGI: 5.18 µM
[31]
  GI50: 1390 nM
  TGI: 13.5 µM
[32]
  GI50: 2900 nM
  TGI: 19.4 µM
[33]
  GI50: 4.76 µM
  TGI: 19.7 µM
[34]
  GI50: 627 nM
  TGI: 2940 nM
[35]
  GI50: 1580 nM
  TGI: 11.7 µM
[36]
  GI50: 1370 nM
  TGI: 11.4 µM
[37]
  GI50: 2270 nM
  TGI: 16 µM
[38]
  GI50: 806 nM
  TGI: 37.1 µM
[39]
  GI50: 4.29 µM
  TGI: > 100 µM
[40]
  GI50: 1110 nM
  TGI: 10.4 µM
[41]
  GI50: 971 nM
  TGI: 4.14 µM
[42]
  GI50: 1130 nM
  TGI: 3.87 µM
[43]
  GI50: 1520 nM
  TGI: 3.5 µM
[44]
  GI50: 491 nM
  TGI: 6.77 µM
[45]
  GI50: 1040 nM
  TGI: 2210 nM
[46]
  GI50: 1610 nM
  TGI: 7.72 µM
[47]
  GI50: 773 nM
  TGI: 27.8 µM
[48]
  GI50: 1180 nM
  TGI: 9.94 µM
[49]
  GI50: 257 nM
  TGI: 4.83 µM
[50]
  GI50: 2100 nM
  TGI: > 100 µM
[51]
  GI50: 2000 nM
  TGI: 11.3 µM
[52]
  GI50: 175 nM
  TGI: 2410 nM
[53]
  GI50: 1910 nM
  TGI: 21.5 µM
[54]
  GI50: 1050 nM
  TGI: 30.7 µM
[55]
  GI50: 1970 nM
  TGI: 13.4 µM
[56]
  GI50: 379 nM
  TGI: 2160 nM
[57]
  GI50: 284 nM
  TGI: 4.85 µM

Source: PubChem BioAssay (NCI)
